Target: T1, Human complement C1s enzyme (Homo sapiens, UniProt P09871)
T1 construct: purified from human serum, Complement Technology, Inc; purchased Complement Technology, Inc; host or cells: human serum
T1 sequence (P09871 438-688 limits assumed): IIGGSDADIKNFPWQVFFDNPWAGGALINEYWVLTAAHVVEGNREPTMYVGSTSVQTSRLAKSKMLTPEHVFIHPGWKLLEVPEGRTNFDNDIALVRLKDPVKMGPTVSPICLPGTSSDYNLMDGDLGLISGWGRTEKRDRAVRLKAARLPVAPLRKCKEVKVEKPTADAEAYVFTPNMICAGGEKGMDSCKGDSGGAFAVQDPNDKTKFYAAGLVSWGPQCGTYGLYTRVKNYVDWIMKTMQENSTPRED
T1 sequence (P09871 16-437 partner limits assumed): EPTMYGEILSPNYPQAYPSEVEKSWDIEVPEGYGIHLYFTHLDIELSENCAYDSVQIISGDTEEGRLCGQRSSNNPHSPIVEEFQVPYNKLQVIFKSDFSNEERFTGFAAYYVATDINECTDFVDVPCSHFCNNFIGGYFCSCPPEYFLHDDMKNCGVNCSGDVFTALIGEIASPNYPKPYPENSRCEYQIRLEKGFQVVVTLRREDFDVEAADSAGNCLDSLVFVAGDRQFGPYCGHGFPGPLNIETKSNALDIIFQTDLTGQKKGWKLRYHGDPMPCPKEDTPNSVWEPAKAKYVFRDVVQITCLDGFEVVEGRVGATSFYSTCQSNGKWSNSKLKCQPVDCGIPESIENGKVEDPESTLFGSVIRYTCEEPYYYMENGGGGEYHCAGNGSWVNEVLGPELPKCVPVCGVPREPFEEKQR
Assay: Human C1s Enzyme Assay
Type: biochemical
Settings: human C1s 1.16 nM, 5 min preincubation, substrate Z-L-Lys-SBzl 100 μM, A405; read-out: C1s Protease Activity
Procedure: The assay of Example 3 was used to determine the IC50's of the compounds. Other standard complement assays are also available.
Example 3. Human C1s Enzyme Assay
Human complement C1s enzyme (purified from human serum, Complement Technology, Inc.) at 1.16 nM final concentration was incubated with test compound at various concentrations for 5 min at room temperature in 50 mM Tris, 1 M NaCl, pH 7.5. A synthetic substrate Z-L-Lys-SBzl and DTNB (Ellman's reagent) were added to final concentrations of 100 μM each. Absorbance at 405 nm (A405) was recorded at 30 second intervals for 30 min using a microplate spectrophotometer. IC50 values were calculated by nonlinear regression of complement C1s reaction rates as a function of test compound concentration.

SMILES	IC50
N=C(N)c1csc(CNC(=O)[C@@H]2C[C@@H](OC3CC3)CN2C(=O)CNC(=O)c2ccc(Oc3ccccc3)cc2)c1 [Compound 110, (2S,4R)-N-((4-carbamimidoylthiophen-2-yl)methyl)-4-cyclopropoxy-1-((4-phenoxy-benzoyl)glycyl)pyrrolidine-2-carboxamide]	< 100 nM
C[C@@]12C[C@@H]1N(C(=O)CNC(=O)CCCOc1ccccc1)[C@H](C(=O)NCc1cc(C(=N)N)c(F)s1)C2 [Compound 245, (1S,3S,5S)-N-((4-carbamimidoyl-5-fluorothiophen-2-yl)methyl)-5-methyl-2-((4-phenoxybutanoyl)glycyl)-2-azabicyclo[3.1.0]hexane-3-carboxamide]	< 100 nM
C[C@@]12C[C@@H]1N(C(=O)CNC(=O)c1ccc(Oc3ccccc3)cc1)[C@H](C(=O)NCc1cc(-c3ncc[nH]3)cs1)C2 [Compound 38, (1S,3S,5S)-N-((4-(1H-imidazol-2-yl)thiophen-2-yl)methyl)-5-methyl-2-((4-phenoxybenzoyl)glycyl)-2-azabicyclo[3.1.0]hexane-3-carboxamide]	< 100 nM
N=C(N)c1csc(CNC(=O)[C@@H]2C[C@@]3(CN2C(=O)CNC(=O)c2ccc(Oc4ccccc4)cc2)CC3(F)F)c1 [Compound 21, (3S,6S)-N-((4-carbamimidoylthiophen-2-yl)methyl)-1,1-difluoro-5-((4-phenoxy-benzoyl)glycyl)-5-azaspiro[2.4]heptane-6-carboxamide]	< 100 nM
N=C(N)c1ccc(CNC(=O)[C@@H]2CC3(CN2C(=O)CNC(=O)c2ccc(Oc4ccccc4)cc2)OCCO3)cn1 [Compound 71, (S)-N-((6-carbamimidoylpyridin-3-yl)methyl)-7-((4-phenoxybenzoyl)glycyl)-1,4-dioxa-7-azaspiro[4.4]nonane-8-carboxamide]	< 100 nM
C[C@@]12C[C@@H]1N(C(=O)CNC(=O)c1ccc(Oc3ccccc3)cc1)[C@H](C(=O)NC1(c3cc(C(=N)N)cs3)CC1)C2 [Compound 41, (1S,3S,5S)-N-(1-(4-carbamimidoylthiophen-2-yl)cyclopropyl)-5-methyl-2-((4-phenoxybenzoyl)glycyl)-2-azabicyclo[3.1.0]hexane-3-carboxamide]	< 100 nM
C[C@@]12C[C@@H]1N(C(=O)CNC(=O)c1ccc(OC3CCCCC3)cc1)[C@H](C(=O)NCc1cc(C(=N)N)cs1)C2 [Compound 160, (1S,3S,5S)-N-((4-carbamimidoylthiophen-2-yl)methyl)-2-((4-(cyclohexyloxy)benzoyl)glycyl)-5-methyl-2-azabicyclo[3.1.0]hexane-3-carboxamide]	< 100 nM
N=C(N)c1csc(CNC(=O)[C@@H]2C[C@H](C3CCCC3)CN2C(=O)CNC(=O)c2ccc(Oc3ccccc3)cc2)c1 [Compound 260, (2S,4R)-N-((4-carbamimidoylthiophen-2-yl)methyl)-4-cyclopentyl-1-((4-phenoxybenzoyl)glycyl) pyrrolidine-2-carboxamide]	< 100 nM
C[C@@]12C[C@@H]1N(C(=O)CNC(=O)c1cccc(Oc3ccccc3)c1)[C@H](C(=O)NCc1cc(C(=N)N)cs1)C2 [Compound 137, (1S,3S,5S)-N-((4-carbamimidoylthiophen-2-yl)methyl)-5-methyl-2-((3-phenoxbenzoyl)glycyl)-2-azabicyclo[3.1.0]hexane-3-carboxamide]	< 100 nM
N=C(N)c1csc(CNC(=O)[C@@H]2C[C@]3(CN4CCOCC4)C[C@@H]3N2C(=O)CNC(=O)CCCOc2ccccc2)c1 [Compound 135, (1S,3S,5S)-N-((4-carbamimidoylthiophen-2-yl)methyl)-5-(morpholinomethyl)-2-((4-phenoxybutanoyl)glycyl)-2-azabicyclo[3.1.0]hexane-3-carboxamide]	< 100 nM
CC(=O)ONC(=N)c1csc(CNC(=O)[C@@H]2C[C@]3(C)C[C@@H]3N2C(=O)CNC(=O)c2ccc(Oc3ccccc3)cc2)c1 [Compound 39, (1S,3S,5S)-N-((4-(N-acetoxycarbamimidoyl)thiophen-2-yl)methyl)-5-methyl-2-((4-phenoxybenzoyl)glycyl)-2-azabicyclo[3.1.0]hexane-3-carboxamide]	100 to 1000 nM
Cc1ccccc1[C@H]1C[C@@H](C(=O)N[C@H](C)c2cc(C(=N)N)cs2)N(C(=O)CNC(=O)c2ccc(Oc3ccccc3)cc2)C1 [Compound 238, (2S,4R)-N-((R)-1-(4-carbamimidoylthiophen-2-yl)ethyl)-1-((4-phenoxybenzoyl)glycyl)-4-(o-tolyl)pyrrolidine-2-carboxamide]	< 100 nM
N=C(N)c1csc([C@H](NC(=O)[C@@H]2C[C@@H](OC(F)F)CN2C(=O)CNC(=O)c2ccc(Oc3ccccc3)cc2)C2CC2)c1 [Compound 183, (2S,4R)-N-((R)-(4-carbamimidoylthiophen-2-yl)(cyclopropyl)methyl)-4-(difluoromethoxy)-1-((4-phenoxybenzoyl)glycyl)pyrrolidine-2-carboxamide]	> 1000 nM

Now from value to compound:

IC50	SMILES
< 100 nM	Cc1cccc([C@@H]2C[C@@H](C(=O)NCc3cc(C(=N)N)cs3)N(C(=O)CNC(=O)CCCOc3ccccc3)C2)c1 [Compound 171, (2S,4S)-N-((4-carbamimidoylthiophen-2-yl)methyl)-1-((4-phenoxybutanoyl)glycyl)-4-(m-tolyl)pyrrolidine-2-carboxamide]
< 100 nM	C[C@@H](NC(=O)[C@@H]1C[C@@H](S(C)(=O)=O)CN1C(=O)CNC(=O)CCCOc1ccccc1)c1cc(C(=N)N)cs1 [Compound 125, (2S,4R)-N-((R)-1-(4-carbamimidoylthiophen-2-yl)ethyl)-4-(methylsulfonyl)-1-((4-phenoxybutanoyl)glycyl)pyrrolidine-2-carboxamide]
< 100 nM	N=C(N)c1csc(CNC(=O)[C@@H]2CC3(CC3)CN2C(=O)CNC(=O)CCCOc2ccccc2)c1 [Compound 55, (S)-N-((4-carbamimidoylthiophen-2-yl)methyl)-5-((4-phenoxybutanoyl)glycyl)-5-azaspiro[2.4]heptane-6-carboxamide]
> 1000 nM	N=C(N)c1csc([C@@H](NC(=O)[C@@H]2CC3(CN2C(=O)CNC(=O)CCCOc2ccccc2)OCCO3)c2ccccc2)c1 [Compound 217, (S)-N-((S)-(4-carbamimidoylthiophen-2-yl)(phenyl)methyl)-7-((4-phenoxybutanoyl)glycyl)-1,4-dioxa-7-azaspiro[4.4]nonane-8-carboxamide]
< 100 nM	COC[C@@]1(F)C[C@@H](C(=O)N[C@H](C)c2cc(C(=N)N)cs2)N(C(=O)CNC(=O)c2ccc(Oc3ccccc3)cc2)C1 [Compound 196, (2S,4R)-N-((R)-1-(4-carbamimidoylthiophen-2-yl)ethyl)-4-fluoro-4-(methoxymethyl)-1-((4-phenoxybenzoyl)glycyl)pyrrolidine-2-carboxamide]
< 100 nM	[N-]=[N+]=NC[C@@]1(F)C[C@@H](C(=O)NCc2cc(C(=N)N)cs2)N(C(=O)CNC(=O)CCCOc2ccccc2)C1 [Compound 85, (2S,4R)-4-(azidomethyl)-N-((4-carbamimidoylthiophen-2-yl)methyl)-4-fluoro-1-((4-phenoxybutanoyl)glycyl)pyrrolidine-2-carboxamide]
< 100 nM	Cc1ccccc1[C@H]1C[C@@H](C(=O)NCc2cc(C(=N)N)cs2)N(C(=O)CNC(=O)CCCOc2ccccc2)C1 [Compound 150]
< 100 nM	N=C(N)c1csc(CNC(=O)[C@@H]2C[C@H](C3CCCCC3)CN2C(=O)CNC(=O)CCCOc2ccccc2)c1 [Compound 242, (2S,4R)-N-((4-carbamimidoylthiophen-2-yl)methyl)-4-cyclohexyl-1-((4-phenoxybutanoyl)glycyl)pyrrolidine-2-carboxamide]
> 1000 nM	CC(C)C[C@H](NC(=O)[C@@H]1CC2(CN1C(=O)CNC(=O)CCCOc1ccccc1)OCCO2)c1cc(C(=N)N)cs1 [Compound 221, (S)-N-((S)-1-(4-carbamimidoylthiophen-2-yl)-3-methylbutyl)-7-((4-phenoxybutanoyl)glycyl)-1,4-dioxa-7-azaspiro[4.4]nonane-8-carboxamide]
100 to 1000 nM	CC1(C)SCN(C(=O)CNC(=O)CCCOc2ccccc2)[C@@H]1C(=O)NCc1cc(C(=N)N)cs1 [Compound 124, (R)-N-((4-carbamimidoylthiophen-2-yl)methyl)-5,5-dimethyl-3-((4-phenoxybutanoyl)glycyl)thiazolidine-4-carboxamide]
< 100 nM	CS(=O)(=O)[C@@H]1C[C@@H](C(=O)NCc2cc(C(=N)N)cs2)N(C(=O)CNC(=O)CCCOc2ccccc2)C1 [Compound 98, (2S,4R)-N-((4-carbamimidoylthiophen-2-yl)methyl)-4-(methylsulfonyl)-1-((4-phenoxybutanoyl)glycyl)pyrrolidine-2-carboxamide]

Source: patent publication US20250171423A1, “PHARMACEUTICAL COMPOUNDS FOR THE TREATMENT OF COMPLEMENT MEDIATED DISORDERS” (Achillion Pharmaceuticals, Inc., priority 2020, published 2025)
